Experimental data as given in patent US20170281714A1, “METHOD OF TREATMENT USING L[…] G[…] COOPERATE WITH IL-10 TO MODULATE INFLAMMATORY RESPONSE TRIGGERED IN HIV+ AND TB IMMUNE-C[…] PATIENTS” (Your Energy Systems, LLC, priority 2014, published 2017).

Experiments:
[1] = tested on: IL-10; assay: IL-10 secretion by macrophages infected ex vivo with M. Tb H37Rv (FIG. 3; healthy individuals and Type 2 diabetes mellitus); type: cell-based, human; settings: NAC supplied in millimolar amounts
From the text: FIG. 3 is two bar graphs using various substances or compositions for raising glutathione in macrophages and how macrophages respond to these various methods. On the left is a control graph for healthy individuals. On the right is a graph for individuals affected with Type 2 diabetes mellitus.
The right graph of FIG. 3 depicts the response of macrophages from individuals with Type 2 diabetes mellitus ex vivo, which have been infected with M. Tb strain H37Rv.
Prior to the current invention, no method of lowering IL-10 in individuals with type 1 or type 2 diabetes mellitus has been proposed. Type 1 diabetes is an immune disorder in which the body's immune cells (white blood cells) attack and destroy insulin-producing beta cells in the pancreas. As a result, the body cannot produce insulin and glucose stays and builds up in the blood, where it damages all the organ systems. […] Similar to type 1 diabetes, type 2 causes a build-up of glucose in the blood which damages the body's organ systems. One of the key complications of Type 2 diabetes is prolonged infection and inhibited response to infection and poor wound healing. This Type 2 form of the disease is commonly referred to as adult-onset diabetes. Cytokine levels, such as for IL-10, in plasma samples can be determined by sandwich enzyme linked immunosorbent assay (ELISA) using assay kits from eBioscience (kit named ELISA Ready-Set-Go). […]

[2] = tested on: Mycobacterium tuberculosis; settings: NAC at 10 millimolar; cited from earlier work

## CC(=O)N[C@@H](CS)C(=O)O [NAC, N-acetyl cysteine]
[1]
  IL-10 level from macrophages in cell culture: reduce to normal
[2]
  M. tuberculosis CFU/ml in macrophages: 8,000 CFU/ml
